The values below come from PMC4329189, “A SelB/EF-Tu/aIF2γ-like protein from Methanosarcina mazei in the GTP-bound form binds cysteinyl-tRNA^Cys” (Journal of Structural and Functional Genomics, 2015).

SMILES strings stand for the structures.

The assay deals with T1, MM1309 (Methanosarcina mazei, UniProt Q8PXB3).
T1 construct: gene MM_1309; full length, 350 residues, N-terminal His tag from pET28c kept (tag residues visible in crystal), expressed in E. coli; SeMet-substituted protein for the GMPPNP and GDP crystals
T1 sequence (Q8PXB3 1-350): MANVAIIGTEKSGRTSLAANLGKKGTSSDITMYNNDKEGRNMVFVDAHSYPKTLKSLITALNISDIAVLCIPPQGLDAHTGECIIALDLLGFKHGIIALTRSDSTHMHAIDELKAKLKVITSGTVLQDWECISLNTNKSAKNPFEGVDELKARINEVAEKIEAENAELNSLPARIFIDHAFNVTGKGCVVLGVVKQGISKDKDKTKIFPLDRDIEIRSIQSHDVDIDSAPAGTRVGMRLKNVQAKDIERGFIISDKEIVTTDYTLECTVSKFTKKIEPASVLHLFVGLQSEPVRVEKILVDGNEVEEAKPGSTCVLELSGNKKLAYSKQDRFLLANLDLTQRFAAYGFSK
Put plainly: isothermal titration calorimetry. It counts as binding. On the technique in general: Isothermal titration calorimetry measures the heat released or taken up as one component is titrated into another.

Molecule `Nc1nc2c(ncn2[C@@H]2O[C@H](COP(=O)(O)OP(=O)(O)O)[C@@H](O)[C@H]2O)c(=O)[nH]1` [GDP] registered a Kd of 26.2 µM.
To `Nc1nc2c(ncn2[C@@H]2O[C@H](COP(=O)(O)OP(=O)(O)NP(=O)(O)O)[C@@H](O)[C@H]2O)c(=O)[nH]1` [GMPPNP] belongs 222 µM.
The result for `Nc1nc2c(ncn2[C@@H]2O[C@H](COP(=O)(O)OP(=O)(O)OP(=O)(O)O)[C@@H](O)[C@H]2O)c(=O)[nH]1` [GTP] reads 0.43 µM.

The Kd is the equilibrium constant for the complex coming apart. A higher Kd goes with lower affinity.
